Measurements reported in ChEMBL document CHEMBL1201862, “PubChem BioAssay data set” (2004).
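Exposure lasted 48 hours, with cells grown in 96-well plates and compounds tested at five concentrations. The concentration for 50% growth inhibition is given as GI50.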 The source made the active and inactive calls. No stated cut-off is given here; in the data, active = GI50 up to about 1.1 µM and inactive = higher.

How the values were obtained:
Assay in all cases: NCI tumour cell line growth inhibition, 48 h
[1] = test system: NCI/ADR-RES
[2] = test system: NCI-H522
[3] = test system: RXF 393
[4] = test system: A498
[5] = test system: SF-539
[6] = test system: MOLT-4
[7] = test system: IGROV-1
[8] = test system: HT-29
[9] = test system: SW-620
[10] = test system: A549
[11] = test system: TK-10
[12] = test system: K562
[13] = test system: SF-268
[14] = test system: MCF7
[15] = test system: NCI-H460
[16] = test system: M14
[17] = test system: SN12C
[18] = test system: ACHN
[19] = test system: Hs-578T
[20] = test system: HOP-62
[21] = test system: UACC-62
[22] = test system: PC-3
[23] = test system: SF-295
[24] = test system: SR
[25] = test system: OVCAR-4
[26] = test system: COLO 205
[27] = test system: SK-MEL-5
[28] = test system: HCT-116
[29] = test system: T47D
[30] = test system: HOP-92
[31] = test system: LOX IMVI
[32] = test system: HCC 2998
[33] = test system: EKVX
[34] = test system: SNB-75
[35] = test system: Malme-3M
[36] = test system: CCRF-CEM
[37] = test system: RPMI-8226
[38] = test system: DU-145
[39] = test system: OVCAR-5
[40] = test system: SK-MEL-28
[41] = test system: HL-60
[42] = test system: MDA-N
[43] = test system: SK-OV-3
[44] = test system: HCT-15
[45] = test system: OVCAR-8
[46] = test system: KM12
[47] = test system: UO-31
[48] = test system: MDA-MB-231
[49] = test system: UACC-257
[50] = test system: SK-MEL-2
[51] = test system: U-251
[52] = test system: MDA-MB-435
[53] = test system: NCI-H23
[54] = test system: CAKI-1
[55] = test system: SNB-19
[56] = test system: NCI-H226
[57] = test system: OVCAR-3
[58] = test system: 786-0

Measured: GI50

CN(C)CCCNC(=O)N/N=C\c1cccc2ccccc12
inactive: [1] > 10 µM | [2] > 10 µM | [3] > 10 µM | [4] > 10 µM | [5] > 10 µM | [6] > 10 µM | [7] > 10 µM | [8] > 10 µM | [9] > 10 µM | [10] > 10 µM | [11] > 10 µM | [12] > 10 µM | [13] > 10 µM | [14] > 10 µM | [15] > 10 µM | [16] > 10 µM | [17] > 10 µM | [18] > 10 µM | [19] > 10 µM | [20] > 10 µM | [21] > 10 µM | [22] > 10 µM | [23] > 10 µM | [24] > 10 µM | [25] > 10 µM | [26] > 10 µM | [27] > 10 µM | [28] > 10 µM | [29] > 10 µM | [30] > 10 µM | [31] > 10 µM | [32] > 10 µM | [33] > 10 µM | [34] > 10 µM | [35] > 10 µM | [36] > 10 µM | [37] > 10 µM | [38] > 10 µM | [39] > 10 µM | [40] > 10 µM | [41] > 10 µM | [42] > 10 µM | [43] > 10 µM | [45] > 10 µM | [46] > 10 µM | [47] 4.45 µM | [48] > 10 µM
> 10 µM: [44]

COc1ccc(Nc2nc3cc(N)cc(N)c3nc2-c2ccccc2)cc1
inactive: [8] 20.3 µM | [49] 14.4 µM

CCOC(=O)c1csc(NC(=O)CN2CCN(c3ccccc3)CC2)n1
> 100 µM: [44]
inactive: [1] > 100 µM | [3] > 100 µM | [4] > 100 µM | [6] 45.6 µM | [7] 85.9 µM | [8] > 100 µM | [9] > 100 µM | [10] > 100 µM | [11] > 100 µM | [12] > 100 µM | [50] > 100 µM | [49] > 100 µM | [14] > 100 µM | [15] > 100 µM | [16] > 100 µM | [51] > 100 µM | [52] > 100 µM | [18] > 100 µM | [20] > 100 µM | [21] > 100 µM | [22] > 100 µM | [23] > 100 µM | [24] > 100 µM | [25] 99.1 µM | [26] > 100 µM | [53] > 100 µM | [27] 34.8 µM | [54] > 100 µM | [55] > 100 µM | [29] 94 µM | [30] > 100 µM | [31] > 100 µM | [32] > 100 µM | [33] > 100 µM | [34] 38.4 µM | [56] > 100 µM | [35] > 100 µM | [36] > 100 µM | [37] > 100 µM | [38] > 100 µM | [39] > 100 µM | [57] > 100 µM | [40] > 100 µM | [41] 70.6 µM | [42] > 100 µM | [43] > 100 µM | [45] > 100 µM | [46] > 100 µM | [47] > 100 µM | [48] > 100 µM

Cc1ccc(NC(=O)CSC(N)=O)cc1C
inactive: [1] > 100 µM | [2] 89.9 µM | [3] > 100 µM | [4] 98.4 µM | [5] 43.4 µM | [6] 30.8 µM | [7] > 100 µM | [8] > 100 µM | [9] > 100 µM | [10] > 100 µM | [11] > 100 µM | [12] > 100 µM | [50] > 100 µM | [13] > 100 µM | [49] > 100 µM | [14] 31 µM | [15] > 100 µM | [16] 40.8 µM | [51] > 100 µM | [17] > 100 µM | [52] > 100 µM | [18] > 100 µM | [19] > 100 µM | [20] > 100 µM | [21] 93.8 µM | [22] > 100 µM | [23] > 100 µM | [24] 34.7 µM | [25] > 100 µM | [26] > 100 µM | [58] 48.2 µM | [53] > 100 µM | [27] > 100 µM | [54] > 100 µM | [55] > 100 µM | [28] > 100 µM | [29] > 100 µM | [30] > 100 µM | [31] 37.9 µM | [32] > 100 µM | [33] > 100 µM | [34] > 100 µM | [56] > 100 µM | [35] > 100 µM | [36] > 100 µM | [37] 29.3 µM | [38] > 100 µM | [39] > 100 µM | [57] > 100 µM | [40] > 100 µM | [41] > 100 µM | [45] > 100 µM | [46] > 100 µM | [47] > 100 µM | [48] > 100 µM
> 100 µM: [44]

CC(=O)Nc1ccc(Sc2nnc(NC(C)=O)s2)cc1
> 100 µM: [44]
inactive: [1] > 100 µM | [2] > 100 µM | [5] > 100 µM | [6] > 100 µM | [7] > 100 µM | [9] > 100 µM | [10] > 100 µM | [11] > 100 µM | [12] > 100 µM | [13] > 100 µM | [49] > 100 µM | [14] > 100 µM | [15] > 100 µM | [16] > 100 µM | [51] > 100 µM | [17] > 100 µM | [52] > 100 µM | [18] > 100 µM | [19] > 100 µM | [20] > 100 µM | [22] > 100 µM | [23] > 100 µM | [24] > 100 µM | [25] > 100 µM | [26] > 100 µM | [27] > 100 µM | [55] > 100 µM | [28] > 100 µM | [29] > 100 µM | [32] > 100 µM | [33] > 100 µM | [34] > 100 µM | [36] > 100 µM | [37] > 100 µM | [39] > 100 µM | [40] > 100 µM | [41] > 100 µM | [42] > 100 µM | [43] > 100 µM | [45] > 100 µM | [46] > 100 µM | [47] > 100 µM | [48] > 100 µM
